In ChEMBL document CHEMBL1201862, “PubChem BioAssay data set” (2004):
Activity calls are given as the source filed them.

Tests used:
[1] = HEp-2 cell cytotoxicity, dose response, cytotoxicity control for RSV inhibitor project, HTS (AID 2410); type: functional; details: human respiratory syncytial virus
[2] = target: T1, Dual specificity protein phosphatase 3 (Homo sapiens, UniProt P51452); test: VHR1 phosphatase inhibitors, primary screen, biochemical, absorbance, uHTS (AID 1654)
[3] = target: Voltage-gated N-type calcium channel alpha-1B subunit/Amyloid beta A4 precursor protein-binding family A member 1 (Homo sapiens, UniProt Q00975+Q02410); type: protein assay
[4] = target: T1, Dual specificity protein phosphatase 3; test: VHR1 phosphatase inhibitors, biochemical (AID 1878)
[5] = target: T2, Calpain-2 catalytic subunit (Sus scrofa, UniProt P43367); test: pig calpain II inhibitor potency, dose response, biochemical, fluorogenic peptide substrate (AID 1420); type: functional
T2 sequence (P43367 whole entry): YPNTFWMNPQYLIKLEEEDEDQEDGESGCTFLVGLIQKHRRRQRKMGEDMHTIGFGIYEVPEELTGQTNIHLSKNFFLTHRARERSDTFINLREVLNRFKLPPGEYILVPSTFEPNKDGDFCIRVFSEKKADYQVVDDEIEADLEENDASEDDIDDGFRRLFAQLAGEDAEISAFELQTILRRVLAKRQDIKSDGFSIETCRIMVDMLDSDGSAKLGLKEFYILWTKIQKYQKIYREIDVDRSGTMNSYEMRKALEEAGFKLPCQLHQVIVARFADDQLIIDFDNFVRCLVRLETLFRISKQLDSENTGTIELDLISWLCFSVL

[6] = target: T3, Dual specificity protein phosphatase 6 (Rattus norvegicus, UniProt Q64346); test: MKP-3 phosphatase inhibitors, primary screen, biochemical, rat enzyme, in vitro (AID 425)
T3 sequence (Q64346 whole entry): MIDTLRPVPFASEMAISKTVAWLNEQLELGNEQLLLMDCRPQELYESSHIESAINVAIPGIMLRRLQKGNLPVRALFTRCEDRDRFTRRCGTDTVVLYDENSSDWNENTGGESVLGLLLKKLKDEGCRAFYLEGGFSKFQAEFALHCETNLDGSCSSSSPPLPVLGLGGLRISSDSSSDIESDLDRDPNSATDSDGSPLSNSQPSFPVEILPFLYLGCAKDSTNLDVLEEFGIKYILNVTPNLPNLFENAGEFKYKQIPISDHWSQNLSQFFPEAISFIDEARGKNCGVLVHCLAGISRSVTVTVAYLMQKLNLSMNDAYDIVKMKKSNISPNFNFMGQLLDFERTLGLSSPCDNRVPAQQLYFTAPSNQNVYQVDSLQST

[7] = target: Eukaryotic translation initiation factor 4E (Mus musculus, UniProt P63073); test: eIF4E–eIF4G protein interaction inhibitors, dose response, biochemical, TR-FRET (AID 855); type: functional;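 note: potency for disrupting eIF4E binding to eIF4GI seen as loss of FRET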
[8] = target: Tyrosine-protein phosphatase non-receptor type 12 (Homo sapiens, UniProt Q05209); test: SAR Selectivity Analysis of small molecule inhibitors of PEST using pCAP in a fluorescence assay. [Related pubchem assays (depositor defined):AID1779, AID1784, AID2135]; type: functional
[9] = target: T4, Tyrosine-protein phosphatase non-receptor type 22 (Homo sapiens, UniProt Q9Y2R2); test: SAR LYP1 Fluorescent Assay using OMFP substrate for In Vitro dose response studies - Set 3. [Related pubchem assays (depositor defined):AID1779, AID1784, AID2140, AID2686]; type: functional
T4 sequence (Q9Y2R2 whole entry): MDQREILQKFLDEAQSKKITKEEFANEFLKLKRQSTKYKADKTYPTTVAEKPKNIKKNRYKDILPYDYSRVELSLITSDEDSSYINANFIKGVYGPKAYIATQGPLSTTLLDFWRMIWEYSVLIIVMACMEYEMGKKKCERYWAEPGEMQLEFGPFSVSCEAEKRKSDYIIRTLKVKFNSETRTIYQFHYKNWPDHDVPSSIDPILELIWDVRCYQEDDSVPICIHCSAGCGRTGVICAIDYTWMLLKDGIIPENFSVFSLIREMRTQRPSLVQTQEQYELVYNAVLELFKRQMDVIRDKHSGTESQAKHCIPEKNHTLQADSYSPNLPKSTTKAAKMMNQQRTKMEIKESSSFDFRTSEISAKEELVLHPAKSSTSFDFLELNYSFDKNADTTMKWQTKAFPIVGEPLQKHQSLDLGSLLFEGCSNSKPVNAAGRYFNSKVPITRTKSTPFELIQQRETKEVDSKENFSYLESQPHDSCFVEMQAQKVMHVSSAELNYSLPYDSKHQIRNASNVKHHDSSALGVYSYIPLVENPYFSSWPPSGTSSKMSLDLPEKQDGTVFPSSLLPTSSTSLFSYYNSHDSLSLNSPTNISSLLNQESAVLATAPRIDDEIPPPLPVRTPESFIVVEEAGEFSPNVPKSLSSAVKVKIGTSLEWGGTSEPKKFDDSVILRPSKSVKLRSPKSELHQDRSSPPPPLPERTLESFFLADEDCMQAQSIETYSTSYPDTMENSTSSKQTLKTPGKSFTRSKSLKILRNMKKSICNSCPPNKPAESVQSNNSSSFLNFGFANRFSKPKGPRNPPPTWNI

[10] = target: T4, Tyrosine-protein phosphatase non-receptor type 22; test: LYP (PTPN22) phosphatase inhibitor potency, SAR follow-up, biochemical, pCAP fluorogenic substrate, fluorescence, set 3 (AID 449727); type: functional
[11] = target: G-protein coupled receptor 55 (Homo sapiens, UniProt Q9Y2T6); test: GPR55 antagonists, SAR follow-up, counter-screen for GPR35 antagonist project, imaging, image-based (AID 2397); type: functional
Chain of G-protein coupled receptor 55 (Q9Y2T6 whole entry): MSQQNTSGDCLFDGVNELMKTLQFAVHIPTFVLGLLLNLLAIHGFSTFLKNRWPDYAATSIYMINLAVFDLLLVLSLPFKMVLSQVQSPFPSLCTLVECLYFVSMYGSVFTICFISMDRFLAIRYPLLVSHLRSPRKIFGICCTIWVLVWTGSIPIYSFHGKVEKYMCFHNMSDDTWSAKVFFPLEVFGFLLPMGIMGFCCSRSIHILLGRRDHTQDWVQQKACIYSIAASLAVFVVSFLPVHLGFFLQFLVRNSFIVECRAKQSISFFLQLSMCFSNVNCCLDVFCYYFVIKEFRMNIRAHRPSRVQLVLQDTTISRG

T1 sequence (P51452 whole entry): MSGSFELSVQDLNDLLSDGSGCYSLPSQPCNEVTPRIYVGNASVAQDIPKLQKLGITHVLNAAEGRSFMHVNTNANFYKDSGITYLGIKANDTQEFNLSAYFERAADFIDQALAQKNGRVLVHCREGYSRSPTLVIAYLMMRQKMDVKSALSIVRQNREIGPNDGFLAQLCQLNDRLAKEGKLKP
Chain of Eukaryotic translation initiation factor 4E (P63073 whole entry): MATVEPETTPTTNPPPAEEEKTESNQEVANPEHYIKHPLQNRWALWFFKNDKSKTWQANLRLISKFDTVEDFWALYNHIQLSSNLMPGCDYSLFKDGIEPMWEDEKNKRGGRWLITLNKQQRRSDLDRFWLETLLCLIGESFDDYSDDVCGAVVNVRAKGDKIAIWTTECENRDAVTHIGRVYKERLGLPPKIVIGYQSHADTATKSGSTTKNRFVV
Chain of Tyrosine-protein phosphatase non-receptor type 12 (Q05209 whole entry): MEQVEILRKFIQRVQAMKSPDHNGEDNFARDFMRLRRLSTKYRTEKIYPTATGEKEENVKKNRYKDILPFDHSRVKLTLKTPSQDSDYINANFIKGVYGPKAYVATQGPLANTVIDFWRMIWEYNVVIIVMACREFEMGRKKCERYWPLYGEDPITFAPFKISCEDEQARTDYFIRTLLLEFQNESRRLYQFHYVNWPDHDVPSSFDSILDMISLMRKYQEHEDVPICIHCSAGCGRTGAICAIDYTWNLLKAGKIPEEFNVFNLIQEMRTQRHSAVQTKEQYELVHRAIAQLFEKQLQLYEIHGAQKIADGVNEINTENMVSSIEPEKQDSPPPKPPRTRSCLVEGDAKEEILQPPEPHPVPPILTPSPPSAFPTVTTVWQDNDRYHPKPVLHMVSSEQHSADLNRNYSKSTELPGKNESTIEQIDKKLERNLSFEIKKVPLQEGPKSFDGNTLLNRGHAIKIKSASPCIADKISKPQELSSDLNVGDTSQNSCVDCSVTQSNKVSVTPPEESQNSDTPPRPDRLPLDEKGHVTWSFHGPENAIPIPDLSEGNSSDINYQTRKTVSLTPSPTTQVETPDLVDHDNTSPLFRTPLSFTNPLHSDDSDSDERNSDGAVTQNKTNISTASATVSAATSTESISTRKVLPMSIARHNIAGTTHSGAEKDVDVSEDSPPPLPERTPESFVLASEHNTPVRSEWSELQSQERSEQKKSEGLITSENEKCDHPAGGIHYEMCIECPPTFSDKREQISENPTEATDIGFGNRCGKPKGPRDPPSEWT
Chain of Voltage-gated N-type calcium channel alpha-1B subunit/Amyloid beta A4 precursor protein-binding family A member 1 (Q00975 whole entry): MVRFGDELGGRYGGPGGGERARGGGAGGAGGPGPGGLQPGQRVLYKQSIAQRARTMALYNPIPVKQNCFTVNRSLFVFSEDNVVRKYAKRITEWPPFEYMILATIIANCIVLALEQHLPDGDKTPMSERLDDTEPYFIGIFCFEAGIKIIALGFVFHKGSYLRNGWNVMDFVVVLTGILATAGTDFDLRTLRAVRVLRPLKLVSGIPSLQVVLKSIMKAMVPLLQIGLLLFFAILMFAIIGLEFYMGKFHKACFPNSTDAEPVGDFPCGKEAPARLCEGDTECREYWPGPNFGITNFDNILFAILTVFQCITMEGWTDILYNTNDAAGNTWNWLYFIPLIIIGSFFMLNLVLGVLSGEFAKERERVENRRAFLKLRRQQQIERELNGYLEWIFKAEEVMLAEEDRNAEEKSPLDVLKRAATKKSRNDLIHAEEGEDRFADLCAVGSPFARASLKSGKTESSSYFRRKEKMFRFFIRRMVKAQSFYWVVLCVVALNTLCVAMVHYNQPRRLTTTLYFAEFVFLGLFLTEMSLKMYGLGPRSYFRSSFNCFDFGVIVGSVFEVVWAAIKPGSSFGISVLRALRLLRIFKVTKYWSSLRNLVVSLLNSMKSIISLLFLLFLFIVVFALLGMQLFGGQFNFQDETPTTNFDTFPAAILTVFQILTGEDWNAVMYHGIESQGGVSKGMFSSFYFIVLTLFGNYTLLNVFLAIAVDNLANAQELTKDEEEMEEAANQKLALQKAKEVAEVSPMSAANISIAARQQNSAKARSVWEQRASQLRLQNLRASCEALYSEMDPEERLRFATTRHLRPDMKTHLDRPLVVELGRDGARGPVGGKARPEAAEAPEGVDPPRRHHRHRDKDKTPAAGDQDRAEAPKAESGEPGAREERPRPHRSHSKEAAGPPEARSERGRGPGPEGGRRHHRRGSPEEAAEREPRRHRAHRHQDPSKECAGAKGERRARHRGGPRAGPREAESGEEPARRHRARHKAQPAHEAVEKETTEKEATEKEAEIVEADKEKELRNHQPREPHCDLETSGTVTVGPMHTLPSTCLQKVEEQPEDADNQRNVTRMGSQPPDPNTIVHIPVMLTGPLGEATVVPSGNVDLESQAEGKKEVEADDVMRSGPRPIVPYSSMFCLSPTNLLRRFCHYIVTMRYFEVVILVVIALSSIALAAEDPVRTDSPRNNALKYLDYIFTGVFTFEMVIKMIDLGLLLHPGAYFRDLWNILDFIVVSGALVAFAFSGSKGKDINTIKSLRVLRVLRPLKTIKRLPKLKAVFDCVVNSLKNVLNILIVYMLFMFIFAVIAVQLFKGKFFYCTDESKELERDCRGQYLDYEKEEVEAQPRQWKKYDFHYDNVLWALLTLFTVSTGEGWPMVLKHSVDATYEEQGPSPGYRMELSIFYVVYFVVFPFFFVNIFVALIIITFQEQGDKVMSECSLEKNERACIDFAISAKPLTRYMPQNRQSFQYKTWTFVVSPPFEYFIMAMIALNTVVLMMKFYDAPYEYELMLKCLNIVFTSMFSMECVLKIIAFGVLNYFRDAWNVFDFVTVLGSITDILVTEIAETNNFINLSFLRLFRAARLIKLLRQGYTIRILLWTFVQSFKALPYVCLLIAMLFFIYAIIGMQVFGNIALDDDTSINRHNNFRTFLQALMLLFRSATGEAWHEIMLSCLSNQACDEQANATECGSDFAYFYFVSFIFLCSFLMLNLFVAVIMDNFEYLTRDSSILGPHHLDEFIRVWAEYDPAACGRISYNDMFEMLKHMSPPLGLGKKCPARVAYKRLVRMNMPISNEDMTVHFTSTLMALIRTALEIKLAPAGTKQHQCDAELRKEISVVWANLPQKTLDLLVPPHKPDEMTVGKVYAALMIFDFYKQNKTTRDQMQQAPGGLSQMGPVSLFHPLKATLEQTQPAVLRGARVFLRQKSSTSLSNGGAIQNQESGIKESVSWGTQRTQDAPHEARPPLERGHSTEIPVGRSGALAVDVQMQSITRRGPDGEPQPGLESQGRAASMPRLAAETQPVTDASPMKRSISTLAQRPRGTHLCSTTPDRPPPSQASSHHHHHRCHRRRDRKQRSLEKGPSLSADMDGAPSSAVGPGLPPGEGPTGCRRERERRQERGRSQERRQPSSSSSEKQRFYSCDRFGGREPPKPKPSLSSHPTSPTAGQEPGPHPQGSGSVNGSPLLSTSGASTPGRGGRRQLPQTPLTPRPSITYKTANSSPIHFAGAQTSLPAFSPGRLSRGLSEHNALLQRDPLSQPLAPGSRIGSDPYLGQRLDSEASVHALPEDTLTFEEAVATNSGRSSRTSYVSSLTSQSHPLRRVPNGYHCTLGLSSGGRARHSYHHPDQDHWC
Chain of Voltage-gated N-type calcium channel alpha-1B subunit/Amyloid beta A4 precursor protein-binding family A member 1 (Q02410 whole entry): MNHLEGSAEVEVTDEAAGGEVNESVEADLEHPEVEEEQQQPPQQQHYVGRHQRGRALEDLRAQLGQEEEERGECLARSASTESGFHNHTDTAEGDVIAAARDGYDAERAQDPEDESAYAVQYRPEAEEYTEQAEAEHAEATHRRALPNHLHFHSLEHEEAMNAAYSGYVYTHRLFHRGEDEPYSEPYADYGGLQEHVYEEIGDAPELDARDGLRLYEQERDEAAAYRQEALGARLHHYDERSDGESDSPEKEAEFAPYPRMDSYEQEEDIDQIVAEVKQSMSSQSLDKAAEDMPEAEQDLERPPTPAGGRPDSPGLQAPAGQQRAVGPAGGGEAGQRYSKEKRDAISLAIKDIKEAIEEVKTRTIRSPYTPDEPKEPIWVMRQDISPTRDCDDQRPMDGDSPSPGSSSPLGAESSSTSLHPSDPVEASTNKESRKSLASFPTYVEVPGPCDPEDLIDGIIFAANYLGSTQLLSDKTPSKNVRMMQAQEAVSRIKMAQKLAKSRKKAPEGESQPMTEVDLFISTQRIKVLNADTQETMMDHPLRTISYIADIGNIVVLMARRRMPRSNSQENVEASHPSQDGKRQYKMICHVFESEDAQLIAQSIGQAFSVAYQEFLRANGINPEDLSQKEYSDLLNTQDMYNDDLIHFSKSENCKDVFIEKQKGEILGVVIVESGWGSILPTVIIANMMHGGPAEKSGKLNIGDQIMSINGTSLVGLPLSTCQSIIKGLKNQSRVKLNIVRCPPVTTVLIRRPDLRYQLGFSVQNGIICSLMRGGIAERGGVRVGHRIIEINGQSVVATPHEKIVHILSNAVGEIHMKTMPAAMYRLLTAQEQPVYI

SMILES	CC50 [1]	IC50 [2]	IC50 [3]	IC50 [4]	IC50 [5]	IC50 [6]	IC50 [7]	IC50 [8]	IC50 [9]	IC50 [10]	IC50 [11]
O=C(Nc1ccc(Cl)c(Cl)c1)Nc1nnc(-c2ccncc2)s1	5.14 µM (active)	5.3 µM (active)	21.1 µM (active)	1.56 µM (active)	3.64 µM (active)	16.2 µM (active)	> 64 µM (inactive)	–	–	–	–
CCOC(=O)c1ccc(NC(=O)CCCN2C(=O)/C(=C/c3ccccc3)SC2=S)cc1	–	–	–	–	–	–	–	94.2 µM (active)	> 100 µM (inactive)	> 100 µM (inactive)	> 32 µM (inactive)
